Assay results taken from US20150079105A1, “TREATMENT OF ACUTE INFLAMMATION IN THE RESPIRATORY TRACT” (UCL Business PLC, priority 2012, published 2015).
Entries after “also recorded” stand apart in the source; their conditions may differ.

Key:
human neutrophils = assay: Human neutrophil chemotaxis (ChemoTX) towards recombinant human chemokines; format: cell-based; conditions: 50 ng/ml; 45 min; 5×10^4 neutrophils per well
Procedure: FIG. 17. Healthy human volunteers were challenged with nebulized 0.9% saline […] (final LPS dose was 50 μg) and BAL fluid collected 6 hours later. CCL7 protein levels in BAL fluid from saline-treated or LPS-challenged human volunteers were measured by ELISA (a). Human neutrophil chemotaxis was measured across 5 μm membranes (ChemoTX, NeuroProbe) in response to recombinant human (rh) CXCL8 or rhCCL7 (b). Neutrophil chemotaxis towards LPS-treated human BAL fluid was measured in the presence of neutralizing anti-CXCL8 or anti-CCL7 antibodies (c). BAL fluid was collected from patients suffering with ALI on intensive care units. CCL7 protein (d) and CCL2 protein (f) in ALI BAL fluid was measured by ELISA. Neutrophil chemotaxis towards BAL fluid obtained from patients with ALI was measured in the presence of neutralizing anti-CXCL8 and ant-CCL7 antibodies (e). […]
Although it is widely accepted that CXCL8 (IL-8) is an important chemokine in human neutrophilic lung disease (Miller, E. J. et al Am. Rev. Respir. Dis. 146, 427-432 (1992)), it is far from clear whether other chemokines are associated with disease pathogenesis. […] For these studies, CCL7 was measured by ELISA in BAL fluid from healthy volunteers challenged with LPS (50 μg) at 6 hours as previously described (Shyamsundar, M. et al Am. J. Respir. Crit Care Med. 179, 1107-1114 (2009)). […]

LPS challenged mice = assay: LPS-induced acute lung inflammation in mice: BAL fluid cell counts, MPO, serum albumin; format: in vivo; conditions: 10 mg/kg i.p. immediately after LPS challenge; 3 h
naïve mice = assay: Intranasal administration of recombinant CCL2 or CCL7 to naïve mice, BAL fluid cell counts; format: in vivo; conditions: 500 ng/mouse i.n., 3 h; for total cell number recovered from BAL fluid: compared to saline treated controls
Procedure: FIG. 15. Naïve mice were administered with either rCCL2 or rCCL7 (500 ng/mouse, i.n.) and 3 h later BAL fluid was recovered. BAL fluid total cell counts (A) and total neutrophils (B) were calculated from differential cell counts performed on cytospin preparations. The percentage of neutrophils in BAL fluid was also calculated (C). Differential cell counts were performed on cytospin preparations following saline (D), rCCL2 (E) or rCCL7 (F) administration. Data were analysed by one way ANOVA with Newman-Keuls post hoc test: *p<0.05, **p<0.01,*** p<0.001. Arrows indicate: N, neutrophil; M, monocyte/macrophage.
In order to determine the whether CCL2 and CCL7 are able to directly recruit leukocytes into the lung, recombinant CCL2 or CCL7 was administered into the lungs of naïve mice and sampled the BAL fluid after 3 h. […] Differential cell counts were performed on cytospin preparations following saline (FIG. 15D), rCCL2 (FIG. 15E) or rCCL7 (FIG. 15F) administration.

CXCL8: Recombinant human CXCL8 (IL-8) (Peprotech)
migration of neutrophils compared to media alone (human neutrophils): increased

CCL7: Recombinant human CCL7 (Peprotech)
migration of neutrophils compared to media alone (human neutrophils): did not influence

CCOC(=O)N[C@@H]1CC[C@@H]2[C@@H](C1)C[C@H]1C(=O)O[C@H](C)[C@H]1[C@H]2/C=C/c1ccc(-c2cccc(F)c2)cn1 [SCH530348]
neutrophil numbers in the airspaces (BAL fluid) (LPS challenged mice): significantly decreased
total cell numbers in the airspaces (BAL fluid) (LPS challenged mice): significantly decreased

rCCL2: recombinant CCL2
recruitment of neutrophils into lung airspaces (naïve mice): resulted in the recruitment of a neutrophils
total cell number recovered from BAL fluid (naïve mice): increased; also recorded: greater number of leukocytes compared to rCCL7

rCCL7: recombinant CCL7
neutrophils as a percentage of total cells recovered from BAL fluid (naïve mice): preferential accumulation of neutrophils compared to rCCL2
recruitment of neutrophils into lung airspaces (naïve mice): resulted in the recruitment of a neutrophils
total cell number recovered from BAL fluid (naïve mice): increased
